Columns and labels:
PRMT5 [1] = biological target: T1, PRMT5 (Homo sapiens, UniProt O14744); assay: PRMT5 biochemical IC50 assay with MTA as cofactor; conditions: PRMT5, MTA as cofactor; read-out: MTA IC50
T1 construct: purchased Viva (custom protein)

PRMT5 [2] = biological target: T1, PRMT5; assay: PRMT5 biochemical IC50 assay with SAM as cofactor; conditions: PRMT5, SAM as cofactor; read-out: SAM IC50
[3] = test system: HAP1 MTAP-deleted cell line; assay: Viability assay, MTAP-deleted cell line; assay type: cell-based; conditions: Homo sapiens, HAP1, viability assay, MTAP-deleted cell line; read-out: HAP1 MTAP deleted viability
Text: Table 1 additionally indicates IC50 values in a viability assay for the MTAP-deleted cell line (column 10), indicating the effect of treatment with compound on cell survival.

PRMT5 [4] = biological target: T1, PRMT5; assay: PRMT5 biochemical IC50 assay with no cofactor; conditions: PRMT5, no cofactor; read-out: No Cofactor/rel IC50
Text: Table 1 indicates IC50 values (μM) against PRMT5 for exemplary compounds in the presence of SAM as cofactor, with no cofactor, and with MTA as cofactor, respectively (columns 4-6). […] Ki values can be calculated from the IC50 values as described in the Examples section. As detailed in the Examples section, for the assay performed in the presence of SAM, IC50=Ki×1.5 (Ki=IC50/1.5).

[5] = test system: HAP1 MTAP-deleted cell line; assay: SDMA in-cell western assay, HAP1 MTAP-deleted; assay type: cell-based; conditions: for IC50: Homo sapiens, HAP1, SDMA in-cell western, HAP1 MTAP-deleted, read-out: HAP 1 MTAP deleted IC50; for MTAP intact/deleted ratio: IC50 ratio HAP1 MTAP-intact / HAP1 MTAP-deleted, SDMA in-cell western
How it was run: (§1)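 Readout: in-cell western detection of SDMA. Cells: HAP1 expressing endogenous MTAP and an MTAP-null HAP1 counterpart. Output: IC50.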

[6] = test system: HAP1 MTAP-intact cell line; assay: SDMA in-cell western assay, HAP1 MTAP-intact; assay type: cell-based; conditions: Homo sapiens, HAP1, SDMA in-cell western, HAP1 MTAP-intact; read-out: MTAP HAP1 intact IC50
How it was run: as §1

T1 sequence (O14744 whole entry): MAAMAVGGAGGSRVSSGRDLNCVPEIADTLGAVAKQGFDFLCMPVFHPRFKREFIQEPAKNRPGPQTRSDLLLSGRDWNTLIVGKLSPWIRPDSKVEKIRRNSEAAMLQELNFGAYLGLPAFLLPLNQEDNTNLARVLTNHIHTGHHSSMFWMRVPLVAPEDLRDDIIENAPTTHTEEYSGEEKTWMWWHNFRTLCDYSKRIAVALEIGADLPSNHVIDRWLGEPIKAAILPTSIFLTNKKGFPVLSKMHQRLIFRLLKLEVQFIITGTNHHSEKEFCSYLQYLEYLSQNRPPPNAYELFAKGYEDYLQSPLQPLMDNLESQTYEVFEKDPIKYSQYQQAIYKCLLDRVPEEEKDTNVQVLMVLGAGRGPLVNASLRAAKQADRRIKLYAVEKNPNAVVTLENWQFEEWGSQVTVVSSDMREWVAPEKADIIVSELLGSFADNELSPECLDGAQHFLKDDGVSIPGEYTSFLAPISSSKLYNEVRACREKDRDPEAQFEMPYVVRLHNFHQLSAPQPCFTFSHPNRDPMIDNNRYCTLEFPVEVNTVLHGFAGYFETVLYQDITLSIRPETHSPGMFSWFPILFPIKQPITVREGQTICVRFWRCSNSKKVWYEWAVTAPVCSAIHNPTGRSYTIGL
T1 sequence (Q9BQA1 whole entry partner): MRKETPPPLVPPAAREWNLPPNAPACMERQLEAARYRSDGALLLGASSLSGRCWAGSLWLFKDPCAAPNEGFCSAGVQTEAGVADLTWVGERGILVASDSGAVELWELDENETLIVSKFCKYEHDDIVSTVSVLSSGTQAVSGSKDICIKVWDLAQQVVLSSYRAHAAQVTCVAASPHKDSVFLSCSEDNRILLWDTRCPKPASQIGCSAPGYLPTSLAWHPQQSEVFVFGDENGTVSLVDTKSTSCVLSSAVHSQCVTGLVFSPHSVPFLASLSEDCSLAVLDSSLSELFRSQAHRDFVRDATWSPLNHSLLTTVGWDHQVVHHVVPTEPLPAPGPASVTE

Row | SMILES | IC50 (PRMT5 [1]) | IC50 (PRMT5 [2]) | IC50 [3] | IC50 (PRMT5 [4]) | IC50 [5] | MTAP intact/deleted ratio [5] | IC50 [6]
1 | COc1ncc(NC(=O)C(=O)N2C[C@H](C)CC[C@H]2c2ccc3cnccc3c2)cc1C(N)=O (single isomer, unassigned) [Compound 933] | > 500 nM | > 500 nM | > 10000 nM | > 500 nM | > 1000 nM | B (an IC50 ratio greater than or equal to 3 fold but lower than 10 fold) | > 1000 nM
2 | CC(=O)Nc1ccc([C@@H]2CC[C@@H](C)CN2C(=O)C(=O)Nc2cncc(C(N)=O)c2)cn1 (single isomer, unassigned) [Compound 934] | < 50 nM | 50 to 500 nM | > 10000 nM | 50 to 500 nM | 100 to 1000 nM | A (an IC50 ratio greater than or equal to 10 fold) | > 1000 nM
3 | CCc1cc(NC(=O)C(=O)N2C[C@H](C)C(F)(F)C[C@H]2c2ccc(C)nc2)cnc1N (single isomer, unassigned) [Compound 935] | > 500 nM | > 500 nM | > 10000 nM | > 500 nM | > 1000 nM | C (an IC50 ratio of less than 3 fold) | > 1000 nM
4 | COc1ncc(NC(=O)C(=O)N2C[C@H](C)C(F)(F)C[C@H]2c2ccc(C)nc2)cc1C(N)=O (single isomer, unassigned) [Compound 936] | > 500 nM | > 500 nM | > 10000 nM | > 500 nM | > 1000 nM | C (an IC50 ratio of less than 3 fold) | > 1000 nM
5 | Cc1cc(NC(=O)C(=O)N2C[C@@H](C)CC[C@@H]2c2cn[nH]c2)cnc1N (single isomer, unassigned) [Compound 941] | < 50 nM | 50 to 500 nM | 1000 to 10000 nM | < 50 nM | < 100 nM | B (an IC50 ratio greater than or equal to 3 fold but lower than 10 fold) | 100 to 1000 nM
6 | C[C@H]1CC[C@H](c2cn[nH]c2)N(C(=O)C(=O)Nc2cncc(C(N)=O)c2)C1 (single isomer, unassigned) [Compound 942] | < 50 nM | 50 to 500 nM | > 10000 nM | 50 to 500 nM | 100 to 1000 nM | A (an IC50 ratio greater than or equal to 10 fold) | > 1000 nM
7 | C[C@@H]1CC[C@@H](c2cc3cn[nH]c3s2)N(C(=O)C(=O)Nc2cncc(C(N)=O)c2)C1 (single isomer, unassigned) [Compound 943, 5-(2-(5-methyl-2-(1H-thieno[2,3-c]pyrazol-5-yl)piperidin-1-yl)-2-oxoacetamido)nicotinamide] | < 50 nM | 50 to 500 nM | < 1000 nM | < 50 nM | < 100 nM | A (an IC50 ratio greater than or equal to 10 fold) | 100 to 1000 nM
8 | Cc1ccc([C@@H]2CC(F)(F)[C@@H](C)CN2C(=O)C(=O)Nc2cnc(N)c(C)c2)cn1 (single isomer, unassigned) [Compound 944] | > 500 nM | > 500 nM | > 10000 nM | > 500 nM | > 1000 nM | C (an IC50 ratio of less than 3 fold) | > 1000 nM
9 | COc1ncc(NC(=O)C(=O)N2C[C@@H](C)CC[C@@H]2c2cc(Cl)cc(Cl)c2)cc1C(N)=O (single isomer, unassigned) [Compound 945] | < 50 nM | 50 to 500 nM | 1000 to 10000 nM | 50 to 500 nM | < 100 nM | A (an IC50 ratio greater than or equal to 10 fold) | > 1000 nM
10 | Cc1ccc([C@@H]2CC(F)(F)[C@@H](C)CN2C(=O)C(=O)Nc2cncc(C(N)=O)c2)cn1 (single isomer, unassigned) [Compound 946] | > 500 nM | > 500 nM | > 10000 nM | > 500 nM | > 1000 nM | B (an IC50 ratio greater than or equal to 3 fold but lower than 10 fold) | > 1000 nM
11 | Cc1nc2cc([C@H]3CC[C@H](C)CN3C(=O)C(=O)Nc3cnc(N)c(C)c3)ccc2[nH]1 (single isomer, unassigned) [Compound 947] | < 50 nM | 50 to 500 nM | < 1000 nM | 50 to 500 nM | < 100 nM | A (an IC50 ratio greater than or equal to 10 fold) | 100 to 1000 nM
12 | Cc1cc(NC(=O)C(=O)N2C[C@H](C)CC[C@H]2c2ccc3[nH]nc(N)c3c2)cnc1C (single isomer, unassigned) [Compound 948] | < 50 nM | 50 to 500 nM | < 1000 nM | 50 to 500 nM | < 100 nM | A (an IC50 ratio greater than or equal to 10 fold) | > 1000 nM
13 | Cc1cc(NC(=O)C(=O)N2C[C@H](C)CC[C@H]2c2cccc3[nH]cnc23)cnc1N (single isomer, unassigned) [Compound 949] | < 50 nM | 50 to 500 nM | 1000 to 10000 nM | 50 to 500 nM | 100 to 1000 nM | A (an IC50 ratio greater than or equal to 10 fold) | > 1000 nM
14 | COc1ncc(NC(=O)C(=O)N2C[C@H](C)CC[C@H]2c2cc3cn[nH]c3s2)cc1C(N)=O (single isomer, unassigned) [Compound 950, 2-methoxy-5-(2-(5-methyl-2-(1H-thieno[2,3-c]pyrazol-5-yl)piperidin-1-yl)-2-oxoacetamido)nicotinamide] | > 500 nM | > 500 nM | > 10000 nM | > 500 nM | > 1000 nM | B (an IC50 ratio greater than or equal to 3 fold but lower than 10 fold) | > 1000 nM
15 | CCc1cc(NC(=O)C(=O)N2C[C@@H](C)CC[C@@H]2c2cc(Cl)cc(Cl)c2)cnc1N (single isomer, unassigned) [Compound 951] | < 50 nM | 50 to 500 nM | 1000 to 10000 nM | < 50 nM | < 100 nM | A (an IC50 ratio greater than or equal to 10 fold) | > 1000 nM
16 | COc1ncc(NC(=O)C(=O)N2C[C@H](C)CC[C@H]2c2cc3[nH]ncc3s2)cc1C(N)=O (single isomer, unassigned) [Compound 952, 2-methoxy-5-(2-(5-methyl-2-(1H-thieno[3,2-c]pyrazol-5-yl)piperidin-1-yl)-2-oxoacetamido)nicotinamide] | > 500 nM | > 500 nM | > 10000 nM | > 500 nM | > 1000 nM | B (an IC50 ratio greater than or equal to 3 fold but lower than 10 fold) | > 1000 nM
17 | Cc1cc(NC(=O)C(=O)N2C[C@H](C)CC[C@H]2c2ccc3c(=O)[nH]ccc3c2)cnc1N (single isomer, unassigned) [Compound 953] | 50 to 500 nM | > 500 nM | > 10000 nM | > 500 nM | 100 to 1000 nM | A (an IC50 ratio greater than or equal to 10 fold) | > 1000 nM
18 | CCc1cc(NC(=O)C(=O)N2C[C@H](C)CC[C@H]2c2cc3[nH]ncc3s2)cnc1N (single isomer, unassigned) [Compound 955] | < 50 nM | 50 to 500 nM | < 1000 nM | < 50 nM | < 100 nM | A (an IC50 ratio greater than or equal to 10 fold) | 100 to 1000 nM
19 | Cc1cc(NC(=O)C(=O)N2C[C@H](C)CC[C@H]2c2ccc3sc(C(F)(F)F)nc3c2)cnc1N (single isomer, unassigned) [Compound 959] | > 500 nM | > 500 nM | > 10000 nM | > 500 nM | > 1000 nM | B (an IC50 ratio greater than or equal to 3 fold but lower than 10 fold) | > 1000 nM
20 | Cc1cc(NC(=O)C(=O)N2C[C@H](C)CC[C@H]2c2cccc3scnc23)cnc1N (single isomer, unassigned) [Compound 960] | < 50 nM | 50 to 500 nM | 1000 to 10000 nM | 50 to 500 nM | 100 to 1000 nM | A (an IC50 ratio greater than or equal to 10 fold) | > 1000 nM
21 | Cc1cc(NC(=O)C(=O)N2C[C@@H](C)CC[C@@H]2c2ccc3c(=O)[nH]ccc3c2)cnc1N (single isomer, unassigned) [Compound 961] | < 50 nM | > 500 nM | 1000 to 10000 nM | 50 to 500 nM | < 100 nM | A (an IC50 ratio greater than or equal to 10 fold) | > 1000 nM
22 | Cc1cc(NC(=O)C(=O)N2C[C@H](C)CC[C@H]2c2cccc3c2CCN3)cnc1N (single isomer, unassigned) [Compound 962] | < 50 nM | 50 to 500 nM | 1000 to 10000 nM | 50 to 500 nM | 100 to 1000 nM | A (an IC50 ratio greater than or equal to 10 fold) | > 1000 nM

Reference: patent US11999727B2 (Tango Therapeutics, Inc., priority 2020, dated 2024)
